Read-outs that look alike come from different tables or passages of the source.
Target: T1, OX1 (Homo sapiens, UniProt O43613)
T1 construct: expressed in transfected cells; host or cells: CHO (CHO-OX1, kept under selection antibiotic)
T1 sequence (O43613 1-425): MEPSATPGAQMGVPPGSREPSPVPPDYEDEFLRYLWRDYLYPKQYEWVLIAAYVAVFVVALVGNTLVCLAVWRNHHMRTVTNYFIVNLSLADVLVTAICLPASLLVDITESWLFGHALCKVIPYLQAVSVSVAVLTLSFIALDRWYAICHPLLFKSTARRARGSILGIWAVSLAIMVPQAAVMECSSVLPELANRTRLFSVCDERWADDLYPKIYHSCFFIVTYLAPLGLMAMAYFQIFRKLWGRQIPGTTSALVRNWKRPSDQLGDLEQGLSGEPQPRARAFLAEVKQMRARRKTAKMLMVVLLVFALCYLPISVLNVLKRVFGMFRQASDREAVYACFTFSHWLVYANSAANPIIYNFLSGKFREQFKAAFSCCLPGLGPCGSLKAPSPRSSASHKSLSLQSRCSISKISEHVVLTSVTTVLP
Test: Orexin receptor cell-based functional assay, [Ca2+]i by FLIPR, CHO-OX1 cells
Settings: CHO-OX1 cells, EC90 of OXA
Method: Measurement of [Ca^2+]i using a FLIPR: CHO—OX1 or CHO—OX2 cells are seeded into black-walled clear-base 384-well plates (Costar) at a density of 20,000 cells per well in F12-K medium supplemented with 10% FBS and selection antibiotic (500 ug/ml G418 or 15 ug/ml Blasticidin) and cultured overnight. The cells are incubated with equal volume of calcium4 loading buffer (Molecular Devices, Inc.) containing 2.5 mM probenecid at 37° C. for 30 min, followed by putative OX1 or OX2 receptor antagonists (dose-range 0.1 nM-10 μM) for another 30 min.
The cells are incubated with equal volume of calcium6 loading buffer (Molecular Devices, Inc.) containing 2.5 mM probenecid at 37° C. for 2 h, followed by test compounds (dose-range 0.1 nM-10 μM) for another 30 min.

[1] = Table 2, read-out: IC50 Bioactivity OX1
[2] = [Ca2+]i by FLIPR, antagonist dose-range 0.1 nM-10 μM, read-out: OX1

| Compound | IC50 [1] | IC50 [2] |
| --- | --- | --- |
| Cc1nc(-c2ccccc2)c(C(=O)N2C[C@@H]3CCCC[C@@H]3[C@H]2CNC(=O)c2cccc3cccnc23)s1 (racemic) [Example 64, N-(((1S,3aR,7aS)-2-(2-Methyl-4-phenylthiazole-5-carbonyl)octahydro-1H-isoindol-1-yl)methyl)quinoline-8-carboxamide] | 3000 nM | – |
| Cc1nc(-c2ccccc2)c(C(=O)N2CC(NC(C)C)CCC2CNC(=O)c2cccc3cccnc23)s1 (racemic) [Example 48, N-((5-(Isopropylamino)-1-(2-methyl-4-phenylthiazole-5-carbonyl)piperidin-2-yl)methyl)quinoline-8-carboxamide] | < 10000 nM | – |
| Cc1ccc(-c2cnn(CCN3CCOCC3)c2)c(C(=O)N2CCC[C@@H](C)[C@H]2CNc2ccc(C(F)(F)F)cn2)c1 (racemic) [Example 111, rac-cis-(3-Methyl-2-(((5-(trifluoromethyl)pyridin-2-yl)amino)methyl)piperidin-1-yl)(5-methyl-2-(1-(2-morpholinoethyl)-1H-pyrazol-4-yl)phenyl)methanone] | > 1000 nM | – |
| Cc1nc(-c2ccccc2)c(C(=O)N2CCC(=O)[C@H]2CNC(=O)c2cccc3cccnc23)s1 [Example 132, (R)—N-((1-(2-Methyl-4-phenylthiazole-5-carbonyl)-3-oxopyrrolidin-2-yl)methyl)quinoline-8-carboxamide] | 230 nM | – |
| Cc1ccc(-c2ccnn2C)c(C(=O)N2CCC[C@@H](C)[C@H]2CNc2nc3cc(Cl)ccc3o2)c1 [Example A50, ((2S,3R)-2-(((5-Chlorobenzo[d]oxazol-2-yl)amino)methyl)-3-methylpiperidin-1-yl)(5-methyl-2-(1-methyl-1H-pyrazol-5-yl)phenyl)methanone] | – | 230 nM |
| COc1c(F)cccc1C(=O)N1CCC[C@@H](C)[C@H]1CNC(=O)c1cccc2cccnc12 (racemic) [Example 10, rac-cis-N-((1-(3-Fluoro-2-methoxybenzoyl)-3-methylpiperidin-2-yl)methyl)quinoline-8-carboxamide] | < 3000 nM | – |
| Cc1nc(C(=O)N2CCCC3CN(c4ccc(C(F)(F)F)cn4)CC32)c(-c2ccc(F)cc2)s1 (stereo not drawn) [Example A77, (5-(4-Fluorophenyl)-2-methylthiazol-4-yl)(6-(5-(trifluoromethyl)pyridin-2-yl)octahydro-1H-pyrrolo[3,4-b]pyridin-1-yl)methanone] | – | > 1000 nM |

Continued, values first:

| IC50 [1] | IC50 [2] | Compound |
| --- | --- | --- |
| 140 nM | – | Cc1nc(C(=O)N2CCC[C@@H](C)[C@H]2CNc2ccc(C#N)cn2)c(-c2ccc(F)cc2)s1 (racemic) [Example 91, rac-cis-6-(((1-(5-(4-Fluorophenyl)-2-methylthiazole-4-carbonyl)-3-methylpiperidin-2-yl)methyl)amino)nicotinonitrile] |
| 2 nM | – | Cc1nc(C(=O)N2CCC[C@@H](C)[C@H]2CNC(=O)c2cccc3occc23)c(-c2ccc(F)cc2)s1 (racemic) [Example 63, rac-cis-N-((1-(5-(4-Fluorophenyl)-2-methylthiazole-4-carbonyl)-3-methylpiperidin-2-yl)methyl)benzofuran-4-carboxamide] |
| 2 nM | – | CCc1cnc(NC[C@@H]2[C@H](CC)CCCN2C(=O)c2nc(C)sc2-c2ccc(F)cc2)nc1 (racemic) [Example 78, rac-cis-(3-Ethyl-2-(((5-ethylpyrimidin-2-yl)amino)methyl)piperidin-1-yl)(5-(4-fluorophenyl)-2-methylthiazol-4-yl)methanone] |
| 42 nM | – | COc1cnc(NC[C@@H]2[C@H](C)CCCN2C(=O)c2nc(C)sc2-c2ccc(F)cc2)nc1 (racemic) [Example 88, rac-cis-(2-(((5-Methoxypyrimidin-2-yl)amino)methyl)-3-methylpiperidin-1-yl) (5-(4-fluorophenyl)-2-methylthiazol-4-yl)methanone] |
| 180 nM | – | Cc1nc(C(=O)N2CC(NCCO)CCC2CNC(=O)c2cccc3cccnc23)c(-c2cccc(F)c2)s1 (racemic) [Example 54, N-((1-(5-(3-Fluorophenyl)-2-methylthiazole-4-carbonyl)-5-(2-hydroxyethylamino)piperidin-2-yl)methyl)quinoline-8-carboxamide] |

Reference: US9440982B2 (Eolas Therapeutics, Inc., priority 2012, dated 2016)
